Experimental data taken from US20240025884A1 (Dong-A ST Co., Ltd., priority 2022, published 2024).
pIC50: −log10 of the molar value.

The compounds below were run against GCN2 (Homo sapiens (Human), UniProt Q9P2K8) (assay: GCN2 Biochemical Assay (TR-FRET, GFP-eIF2S1 substrate phosphorylation)). Settings: read-out: IC50 (GCN2 Inhibitory Activity).
GCN2, sequence (Q9P2K8 whole entry): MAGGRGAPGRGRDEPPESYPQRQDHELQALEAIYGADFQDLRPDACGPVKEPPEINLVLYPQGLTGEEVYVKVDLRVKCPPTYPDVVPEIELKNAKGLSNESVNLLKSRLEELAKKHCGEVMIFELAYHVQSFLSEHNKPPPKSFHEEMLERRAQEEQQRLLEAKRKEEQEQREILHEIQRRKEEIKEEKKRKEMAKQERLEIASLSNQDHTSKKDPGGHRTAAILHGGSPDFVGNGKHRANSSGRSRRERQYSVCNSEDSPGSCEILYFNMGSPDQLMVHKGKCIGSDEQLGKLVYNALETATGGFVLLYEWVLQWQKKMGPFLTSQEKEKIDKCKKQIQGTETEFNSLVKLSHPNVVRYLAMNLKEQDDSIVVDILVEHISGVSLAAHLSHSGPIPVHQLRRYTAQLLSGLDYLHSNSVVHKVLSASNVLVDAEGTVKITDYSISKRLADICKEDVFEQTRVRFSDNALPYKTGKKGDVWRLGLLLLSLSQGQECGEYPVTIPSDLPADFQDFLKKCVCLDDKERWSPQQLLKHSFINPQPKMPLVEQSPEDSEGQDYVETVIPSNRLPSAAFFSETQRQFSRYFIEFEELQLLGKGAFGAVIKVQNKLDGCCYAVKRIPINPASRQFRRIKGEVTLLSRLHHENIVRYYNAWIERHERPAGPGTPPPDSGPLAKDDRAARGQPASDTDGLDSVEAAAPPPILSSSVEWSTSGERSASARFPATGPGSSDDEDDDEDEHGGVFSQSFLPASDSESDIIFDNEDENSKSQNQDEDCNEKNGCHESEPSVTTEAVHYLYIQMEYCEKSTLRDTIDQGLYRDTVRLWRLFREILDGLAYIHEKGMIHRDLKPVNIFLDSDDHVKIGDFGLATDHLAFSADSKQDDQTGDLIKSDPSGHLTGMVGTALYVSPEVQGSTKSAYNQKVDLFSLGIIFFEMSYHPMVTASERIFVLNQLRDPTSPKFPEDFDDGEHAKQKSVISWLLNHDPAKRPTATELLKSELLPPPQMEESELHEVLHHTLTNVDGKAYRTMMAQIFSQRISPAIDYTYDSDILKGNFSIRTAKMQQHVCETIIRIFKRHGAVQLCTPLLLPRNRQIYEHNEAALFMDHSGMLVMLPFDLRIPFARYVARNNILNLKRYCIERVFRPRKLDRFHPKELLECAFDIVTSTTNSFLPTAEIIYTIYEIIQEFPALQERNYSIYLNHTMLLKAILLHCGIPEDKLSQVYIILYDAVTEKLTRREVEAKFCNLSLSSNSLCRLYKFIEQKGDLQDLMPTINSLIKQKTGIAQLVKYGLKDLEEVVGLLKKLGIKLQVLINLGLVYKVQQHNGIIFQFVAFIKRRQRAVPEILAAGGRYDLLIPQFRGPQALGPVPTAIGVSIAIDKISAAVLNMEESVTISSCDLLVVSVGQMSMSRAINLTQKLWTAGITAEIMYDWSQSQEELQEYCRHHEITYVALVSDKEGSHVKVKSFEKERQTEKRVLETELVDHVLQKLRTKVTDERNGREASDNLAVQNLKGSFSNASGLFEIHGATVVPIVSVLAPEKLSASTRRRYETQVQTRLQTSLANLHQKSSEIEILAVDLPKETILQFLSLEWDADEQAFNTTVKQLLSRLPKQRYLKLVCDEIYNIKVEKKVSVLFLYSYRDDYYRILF
How it was run: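 TR-FRET readout (Ex 340, Em 490/520 nm) after 2–3 h with Tb-labelled phospho-eIF2S1 antibody in stop mix, following a 70 min room-temperature kinase step. Reaction: in-house GCN2, GFP-eIF2S1, ATP, tRNA in Tris pH 7.5 (2× stocks 1.6 nM, 50 nM, 0.2 mM); compounds tested at 10 concentrations, with a phospho-substrate artifact counter-plate.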
`Cc1cnc(Nc2cc(C)n(C)n2)nc1-c1c[nH]c2c(NC(=O)CN3CC[C@H](Oc4ncc(F)c(N(C)c5ccccc5)n4)C3)cccc12` [Example 184, (S)-N-(3-(2-((1,5-dimethyl-1H-pyrazol-3-yl)amino)-5-methylpyrimidin-4-yl)-1H-indol-7-yl)-2-(3-((5-fluoro-4-(methyl(phenyl)amino)pyrimidin-2-yl)oxy)pyrrolidin-1-yl)acetamide] showed a pIC50 of 7.00 to 8.00.
`Cc1cnc(Nc2cc(C)n(C)n2)nc1-c1c[nH]c2c(NC(=O)CN3CC[C@H](Oc4ncc(F)c(N(C)Cc5ccccc5)n4)C3)cccc12` [Example 185, (S)-2-(3-((4-(benzyl(methyl)amino)-5-fluoropyrimidin-2-yl)oxy)pyrrolidin-1-yl)-N-(3-(2-((1,5-dimethyl-1H-pyrazol-3-yl)amino)-5-methylpyrimidin-4-yl)-1H-indol-7-yl)acetamide] was tested, and the pIC50 was greater than 8.00.
`Cc1cnc(Nc2cc(C)n(C)n2)nc1-c1c[nH]c2c(NC(=O)CN3CC[C@H](Oc4ncc(F)c(N5CCCC5)n4)C3)cccc12` [Example 186, (S)-N-(3-(2-((1,5-dimethyl-1H-pyrazol-3-yl)amino)-5-methylpyrimidin-4-yl)-1H-indol-7-yl)-2-(3-((5-fluoro-4-(pyrrolidin-1-yl)pyrimidin-2-yl)oxy)pyrrolidin-1-yl)acetamide] showed a pIC50 greater than 8.00.
`Cc1cnc(Nc2cc(C)n(C)n2)nc1-c1c[nH]c2c(NC(=O)CN3CC[C@H](Oc4ncc(F)c(N5CCCCC5)n4)C3)cccc12` [Example 187, (S)-N-(3-(2-((1,5-dimethyl-1H-pyrazol-3-yl)amino)-5-methylpyrimidin-4-yl)-1H-indol-7-yl)-2-(3-((5-fluoro-4-(piperidin-1-yl)pyrimidin-2-yl)oxy)pyrrolidin-1-yl)acetamide] was tested, and the pIC50 was greater than 8.00.
`Cc1cnc(Nc2cc(C)n(C)n2)nc1-c1c[nH]c2c(NC(=O)CN3CC[C@H](Oc4ncc(F)c(N5CCOCC5)n4)C3)cccc12` [Example 188, (S)-N-(3-(2-((1,5-dimethyl-1H-pyrazol-3-yl)amino)-5-methylpyrimidin-4-yl)-1H-indol-7-yl)-2-(3-((5-fluoro-4-morpholinopyrimidin-2-yl)oxy)pyrrolidin-1-yl)acetamide] showed a pIC50 greater than 8.00.
For `Cc1cnc(Nc2cc(C)n(C)n2)nc1-c1c[nH]c2c(NC(=O)CN3CC[C@H](Oc4ncc(F)c(N5CCSCC5)n4)C3)cccc12` [Example 189, (S)-N-(3-(2-((1,5-dimethyl-1H-pyrazol-3-yl)amino)-5-methylpyrimidin-4-yl)-1H-indol-7-yl)-2-(3-((5-fluoro-4-thiomorpholinopyrimidin-2-yl)oxy)pyrrolidin-1-yl)acetamide], the pIC50 was greater than 8.00.
Compound `Cc1cnc(Nc2cc(C)n(C)n2)nc1-c1c[nH]c2c(NC(=O)CN3CC[C@H](Oc4ncc(F)c(N5CCN(C)CC5)n4)C3)cccc12` [Example 190, (S)-N-(3-(2-((1,5-dimethyl-1H-pyrazol-3-yl)amino)-5-methylpyrimidin-4-yl)-1H-indol-7-yl)-2-(3-((5-fluoro-4-(4-methylpiperazin-1-yl)pyrimidin-2-yl)oxy)pyrrolidin-1-yl)acetamide] has a pIC50 greater than 8.00.
Work on `Cc1cnc(O[C@H]2CCN(CC(=O)Nc3cccc4c(-c5nc(Nc6cc(C)n(C)n6)ncc5C)c[nH]c34)C2)nc1NC1CC1` [Example 191, (S)-2-(3-((4-(cyclopropylamino)-5-methylpyrimidin-2-yl)oxy)pyrrolidin-1-yl)-N-(3-(2-((1,5-dimethyl-1H-pyrazol-3-yl)amino)-5-methylpyrimidin-4-yl)-1H-indol-7-yl)acetamide] yielded a pIC50 greater than 8.00.
`Cc1cnc(Nc2cc(C)n(C)n2)nc1-c1c[nH]c2c(NC(=O)CN3CC[C@H](Oc4ccnc(N)n4)C3)cccc12` [Example 192, (S)-2-(3-((2-aminopyrimidin-4-yl)oxy)pyrrolidin-1-yl)-N-(3-(2-((1,5-dimethyl-1H-pyrazol-3-yl)amino)-5-methylpyrimidin-4-yl)-1H-indol-7-yl)acetamide] gave a pIC50 greater than 8.00.
`CSc1nccc(O[C@H]2CCN(CC(=O)Nc3cccc4c(-c5nc(Nc6cc(C)n(C)n6)ncc5C)c[nH]c34)C2)n1` [Example 193, (S)-N-(3-(2-((1,5-dimethyl-1H-pyrazol-3-yl)amino)-5-methylpyrimidin-4-yl)-1H-indol-7-yl)-2-(3-((2-(methylthio)pyrimidin-4-yl)oxy)pyrrolidin-1-yl)acetamide] showed a pIC50 greater than 8.00.
`COc1nccc(O[C@H]2CCN(CC(=O)Nc3cccc4c(-c5nc(Nc6cc(C)n(C)n6)ncc5C)c[nH]c34)C2)n1` [Example 194, (S)-N-(3-(2-((1,5-dimethyl-1H-pyrazol-3-yl)amino)-5-methylpyrimidin-4-yl)-1H-indol-7-yl)-2-(3-((2-methoxypyrimidin-4-yl)oxy)pyrrolidin-1-yl)acetamide] showed a pIC50 greater than 8.00.
For `Cc1cnc(Nc2cc(C)n(C)n2)nc1-c1c[nH]c2c(NC(=O)CN3CC[C@H](Oc4ccnc(OCc5ccccc5)n4)C3)cccc12` [Example 195, (S)-2-(3-((2-(benzyloxy)pyrimidin-4-yl)oxy)pyrrolidin-1-yl)-N-(3-(2-((1,5-dimethyl-1H-pyrazol-3-yl)amino)-5-methylpyrimidin-4-yl)-1H-indol-7-yl)acetamide], the pIC50 was 7.00 to 8.00.
`CC(=O)Nc1nccc(O[C@H]2CCN(CC(=O)Nc3cccc4c(-c5nc(Nc6cc(C)n(C)n6)ncc5C)c[nH]c34)C2)n1` [Example 196, (S)-2-(3-((2-acetamidopyrimidin-4-yl)oxy)pyrrolidin-1-yl)-N-(3-(2-((1,5-dimethyl-1H-pyrazol-3-yl)amino)-5-methylpyrimidin-4-yl)-1H-indol-7-yl)acetamide] was tested, and the pIC50 was greater than 8.00.
For `CNc1nccc(O[C@H]2CCN(CC(=O)Nc3cccc4c(-c5nc(Nc6cc(C)n(C)n6)ncc5C)c[nH]c34)C2)n1` [Example 197, (S)-N-(3-(2-((1,5-dimethyl-1H-pyrazol-3-yl)amino)-5-methylpyrimidin-4-yl)-1H-indol-7-yl)-2-(3-((2-(methylamino)pyrimidin-4-yl)oxy)pyrrolidin-1-yl)acetamide], the pIC50 was greater than 8.00.
`Cc1cnc(Nc2cc(C)n(C)n2)nc1-c1c[nH]c2c(NC(=O)CN3CC[C@H](Oc4ccnc(NCC(F)(F)F)n4)C3)cccc12` [Example 198, (S)-N-(3-(2-((1,5-dimethyl-1H-pyrazol-3-yl)amino)-5-methylpyrimidin-4-yl)-1H-indol-7-yl)-2-(3-((2-((2,2,2-trifluoroethyl)amino)pyrimidin-4-yl)oxy)pyrrolidin-1-yl)acetamide] was tested, and the pIC50 was greater than 8.00.
Compound `Cc1cnc(Nc2cc(C)n(C)n2)nc1-c1c[nH]c2c(NC(=O)CN3CC[C@H](Oc4ccnc(NCC(C)(F)F)n4)C3)cccc12` [Example 199, (S)-2-(3-((2-((2,2-difluoropropyl)amino)pyrimidin-4-yl)oxy)pyrrolidin-1-yl)-N-(3-(2-((1,5-dimethyl-1H-pyrazol-3-yl)amino)-5-methylpyrimidin-4-yl)-1H-indol-7-yl)acetamide] has a pIC50 greater than 8.00.
Compound `Cc1cnc(Nc2cc(C)n(C)n2)nc1-c1c[nH]c2c(NC(=O)CN3CC[C@H](Oc4ccnc(NCC(F)F)n4)C3)cccc12` [Example 200, (S)-2-(3-((2-((2,2-difluoroethyl)amino)pyrimidin-4-yl)oxy)pyrrolidin-1-yl)-N-(3-(2-((1,5-dimethyl-1H-pyrazol-3-yl)amino)-5-methylpyrimidin-4-yl)-1H-indol-7-yl)acetamide] has a pIC50 greater than 8.00.
For `Cc1cnc(Nc2cc(C)n(C)n2)nc1-c1c[nH]c2c(NC(=O)CN3CC[C@H](Oc4ccnc(NC(C)C(F)(F)F)n4)C3)cccc12` (stereo partly drawn) [Example 201, N-(3-(2-((1,5-dimethyl-1H-pyrazol-3-yl)amino)-5-methylpyrimidin-4-yl)-1H-indol-7-yl)-2-((3S)-3-((2-((1,1,1-trifluoropropan-2-yl)amino)pyrimidin-4-yl)oxy)pyrrolidin-1-yl)acetamide], the pIC50 was 7.00 to 8.00.
In the case of `Cc1cnc(Nc2cc(C)n(C)n2)nc1-c1c[nH]c2c(NC(=O)CN3CC[C@H](Oc4ccnc(NCCF)n4)C3)cccc12` [Example 202, (S)-N-(3-(2-((1,5-dimethyl-1H-pyrazol-3-yl)amino)-5-methylpyrimidin-4-yl)-1H-indol-7-yl)-2-(3-((2-((2-fluoroethyl)amino)pyrimidin-4-yl)oxy)pyrrolidin-1-yl)acetamide], the pIC50 was greater than 8.00.
`CCNc1nccc(O[C@H]2CCN(CC(=O)Nc3cccc4c(-c5nc(Nc6cc(C)n(C)n6)ncc5C)c[nH]c34)C2)n1` [Example 203, (S)-N-(3-(2-((1,5-dimethyl-1H-pyrazol-3-yl)amino)-5-methylpyrimidin-4-yl)-1H-indol-7-yl)-2-(3-((2-(ethylamino)pyrimidin-4-yl)oxy)pyrrolidin-1-yl)acetamide] showed a pIC50 greater than 8.00.
Work on `CCCNc1nccc(O[C@H]2CCN(CC(=O)Nc3cccc4c(-c5nc(Nc6cc(C)n(C)n6)ncc5C)c[nH]c34)C2)n1` [Example 204, (S)-N-(3-(2-((1,5-dimethyl-1H-pyrazol-3-yl)amino)-5-methylpyrimidin-4-yl)-1H-indol-7-yl)-2-(3-((2-(propylamino)pyrimidin-4-yl)oxy)pyrrolidin-1-yl)acetamide] yielded a pIC50 greater than 8.00.
For `CCCCNc1nccc(O[C@H]2CCN(CC(=O)Nc3cccc4c(-c5nc(Nc6cc(C)n(C)n6)ncc5C)c[nH]c34)C2)n1` [Example 205, (S)-2-(3-((2-(butylamino)pyrimidin-4-yl)oxy)pyrrolidin-1-yl)-N-(3-(2-((1,5-dimethyl-1H-pyrazol-3-yl)amino)-5-methylpyrimidin-4-yl)-1H-indol-7-yl)acetamide], the pIC50 was greater than 8.00.
`Cc1cnc(Nc2cc(C)n(C)n2)nc1-c1c[nH]c2c(NC(=O)CN3CC[C@H](Oc4ccnc(NCCCO)n4)C3)cccc12` [Example 206, (S)-N-(3-(2-((1,5-dimethyl-1H-pyrazol-3-yl)amino)-5-methylpyrimidin-4-yl)-1H-indol-7-yl)-2-(3-((2-((3-hydroxypropyl)amino)pyrimidin-4-yl)oxy)pyrrolidin-1-yl)acetamide] was tested, and the pIC50 was greater than 8.00.
`Cc1cnc(Nc2cc(C)n(C)n2)nc1-c1c[nH]c2c(NC(=O)CN3CC[C@H](Oc4ccnc(NC5CC5)n4)C3)cccc12` [Example 207, (S)-2-(3-((2-(cyclopropylamino)pyrimidin-4-yl)oxy)pyrrolidin-1-yl)-N-(3-(2-((1,5-dimethyl-1H-pyrazol-3-yl)amino)-5-methylpyrimidin-4-yl)-1H-indol-7-yl)acetamide] was tested, and the pIC50 was greater than 8.00.
